Assay results reported in patent publication US20110059909A1, “METHODS FOR TREATING INFLAMMATORY DISORDERS” (priority 2004, published 2011).

Experiments:
[1] = test system: GalT-2; test: GalT-2 protein level by immunoblot after antisense transfection; assay type: cell-based, rat; settings: 48 h after transfection, 200 nM oligo
Method: For iNOS protein, the cells were washed with cold Tris buffered saline (TBS; 20 mM Trizma base, and 137 mM NaCl, pH 7.5), lysed in 1×SDS sample loading buffer (62.5 mM Trizma base, 2% w/v SDS, 10% glycerol), following sonication and centrifugation at 15,000×g for 5 min, the supernatant was used for the iNOS western immunoblot assay. The protein concentration of samples was determined with the detergent compatible protein assay reagent (Bio-Rad Laboratories, CA) using bovine serum albumin (BSA) as the standard. Sample was boiled for 3 min with 0.1 volumes of 10% β-mercaptoethanol and 0.5% bromophenol blue mix. […] The membranes were detected by autoradiography using ECL-plus (Amersham Pharmacia Biotech) after washing with TBST buffer.
A 20-mer antisense oligonucleotide of the following sequence (5′-CGCTTGAGCGCAGACATCTT-3′, SEQ ID NO:1) targeted against rat lactosylceramide synthase (GalT-2) were synthesized by Integrated DNA Technology. […] Cells were counted and plated a day before transfection and the following day were treated with Oligofectamine (Invitrogen)-oligonucleotide complexes (200 nM oligo) under serum free conditions. 48 h following transfection, the protein levels of GalT-2 were analyzed using polyclonal antibodies raised against rat GalT-2 (Abjent Inc., CA). […]

[2] = test system: iNOS; test: iNOS expression at the lesion epicenter following SCI
[3] = test system: ERK1/2; test: ERK1/2 activation at the lesion epicenter following SCI; assay type: in vivo, rat
Method: The protein concentration of samples was determined with the detergent compatible protein assay reagent (Bio-Rad Laboratories, CA) using bovine serum albumin (BSA) as the standard. Sample was boiled for 3 min with 0.1 volumes of 10% β-mercaptoethanol and 0.5% bromophenol blue mix. Fifty μg of total cellular protein was resolved by electrophoresis on 8 or 12% polyacrylamide gels, electro-transferred to polyvinylidene difluoride (PVDF) filter and blocked with Tween 20 containing Tris-buffered saline (TBST; 10 mM Trizma base-pH 7.4, 1% Tween 20, and 150 mM NaCl) with 5% skim milk. After incubation with antiserum against iNOS (BD PharMingen, CA), rat GalT-2 (Abjent Inc., CA), H-Ras (Upstate Biotechnology, CA), GFAP (Santa Cruz Biotech, CA), or phospho-specific ERK1/2 (Cell signaling Tech Inc., MA), or pIκ-B (Signal Transduction), in PVDF buffer for 2 h at room temperature, the filters were washed 3 times with TBST buffer and then incubated with horseradish peroxidase conjugated anti-rabbit or mouse IgG for 1 h. The membranes were detected by autoradiography using ECL-plus (Amersham Pharmacia Biotech) after washing with TBST buffer.

[4] = cited from earlier work
[5] = test system: IL-1β; test: IL-1β expression at the lesion epicenter following SCI

Compound | GalT-2 protein levels [1] | iNOS mRNA (real time PCR) and protein expression ([2]; 12 h following SCI) | iNOS expression, double immunofluorescence ([2]; 24 h post-SCI) | Activated ERK1/2, double immunofluorescence ([3]; 24 h following injury) | Chronic ERK1/2 activation (immunoblot, pERK/ERK) ([3]; PDMP 20 mg/kg post-SCI) | Solubility in water [4] | IL-1β mRNA levels ([5]; 4 h post-SCI) | IL-1β protein levels, immunofluorescence ([5]; post-SCI (sections extracted 4 h))
AS GalT-2 oligonucleotides: 20-mer antisense oligonucleotide 5′-CGCTTGAGCGCAGACATCTT-3′, SEQ ID NO:1, against rat lactosylceramide synthase (GalT-2) (antisense CGCTTGAGCGCAGACATCTT; chemistry not given here) | diminished protein levels | – | – | – | – | – | – | –
CCCCCCCCCC(=O)NC(CN1CCOCC1)C(O)c1ccccc1.Cl [PDMP, D-threo-1-Phenyl-2-decanoylamino-3-morpholino-1-propanol.HCl] | – | markedly suppressed | significantly reduced | significantly attenuated | effectively attenuates | soluble in water | markedly inhibited | significantly suppressed
